Measurements published in ChEMBL document CHEMBL1201862, “PubChem BioAssay data set” (2004).
Calls of active or inactive are those of the source.

What was measured:
[1] = non-specific 3'UTR reporter inhibition in Clone20-Shn3RL – cell-based, Renilla luciferase, cherry-picked, counter-screen for Shn3 inhibitor project, dose response (AID 624133); assay type: functional
[2] = NIH-3T3 fibroblast cytotoxicity, dose response, cytotoxicity control, cell-based, fluorescence, Alamar Blue, secondary assay (AID 2327); assay type: functional;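 also: NIH-3T3 mouse fibroblasts cultured with fluconazole at 8 µg/mL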
[3] = cells
[4] = Trypanosoma cruzi growth suppression in host cells – NIH3T3 host cells, beta-gal luminescence, confirmation (AID 2044); assay type: functional, cell-based;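 also: intracellular parasites grown in NIH/3T3 mouse fibroblasts as host cells; luminescent beta-galactosidase reporter signal from transgenic T. cruzi replicating inside host cells; inhibitors lower the luminescence signal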
[5] = reduction of Shn3 3'UTR-driven luciferase in osteoblasts – cell-based, Clone20 osteoblasts, firefly luciferase, cherry-picked, dose response (AID 624132); assay type: functional;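 also: firefly luciferase luminescence from reporter carrying the Shn3 3'UTR in osteoblasts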
[6] = target: DNA damage-inducible transcript 3 protein (Mus musculus, UniProt P35639); assay type: functional, Cricetulus griseus
Chain of DNA damage-inducible transcript 3 protein (P35639 whole entry): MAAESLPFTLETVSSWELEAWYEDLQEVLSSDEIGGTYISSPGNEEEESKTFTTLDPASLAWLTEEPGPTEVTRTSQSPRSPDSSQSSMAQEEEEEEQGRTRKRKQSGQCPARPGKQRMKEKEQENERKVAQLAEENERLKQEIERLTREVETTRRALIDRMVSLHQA

[7] = blockers of bursicon-stimulated LGR2 cAMP reporter – cell-based, HEK293, CRE-luciferase reporter, cherry pick, set 2, dose response (AID 743343); assay type: functional;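 also: transfected cells were stimulated with diluted bursicon conditioned medium after compound addition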
[8] = target: T1, Ubiquitin-conjugating enzyme E2 N (Homo sapiens, UniProt P61088); assay type: functional
T1 sequence (P61088 whole entry): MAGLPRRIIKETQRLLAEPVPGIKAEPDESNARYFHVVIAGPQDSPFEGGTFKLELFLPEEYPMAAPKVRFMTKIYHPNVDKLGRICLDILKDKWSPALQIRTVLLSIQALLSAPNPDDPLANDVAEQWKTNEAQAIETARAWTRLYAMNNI

[9] = A549 cell cytotoxicity, dose response, cytotoxicity control, plate reader, cherry-pick, antagonist series (AID 743412); assay type: functional, cell-based
[10] = fluconazole-exposed Candida albicans growth modulators – fluorescence, retest, confirmation (AID 2467); assay type: functional, cell-based
[11] = target: G-protein coupled receptor 55 (Homo sapiens, UniProt Q9Y2T6); assay: inhibition of LPI-stimulated GPR55 beta-arrestin translocation – imaging, U2OS, beta-arrestin-GFP, LPI agonist, primary screen (AID 2013); assay type: functional;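 also: antagonist potency measured as reduced agonist-driven arrestin aggregation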
Chain of G-protein coupled receptor 55 (Q9Y2T6 whole entry): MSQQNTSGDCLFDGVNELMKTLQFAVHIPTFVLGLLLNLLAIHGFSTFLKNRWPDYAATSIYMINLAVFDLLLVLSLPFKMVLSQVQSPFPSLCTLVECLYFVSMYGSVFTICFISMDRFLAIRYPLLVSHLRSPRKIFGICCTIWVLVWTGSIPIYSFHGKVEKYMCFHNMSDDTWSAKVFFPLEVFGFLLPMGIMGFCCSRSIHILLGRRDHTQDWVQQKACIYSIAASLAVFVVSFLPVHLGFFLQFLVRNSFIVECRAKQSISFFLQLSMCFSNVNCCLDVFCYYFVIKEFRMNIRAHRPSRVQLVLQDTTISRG

[12] = viability loss in HEK293 cells – cell-based, plate reader, cherry-picked samples, cytotoxicity control, dose response (AID 743446); assay type: functional
[13] = NIH3T3 cell viability loss – ATP luminescence, mouse fibroblasts, counter-screen, dose response (AID 2010); assay type: functional, cell-based;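 also: cells exposed to compound for about 90 hours before reading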
[14] = blockade of melanocortin 4 receptor signaling – cell-based, plate reader, cherry pick, counter-screen for LGR2 antagonist project, dose response (AID 743444); assay type: functional;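 also: transfected HEK 293 cells stimulated with alpha-MSH peptide; potency of inhibitors of the alpha-MSH evoked signal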
[15] = target: X-box-binding protein 1 (Homo sapiens, UniProt P17861); assay type: functional, Cricetulus griseus;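 also: confirmatory dose-response counter-screen serving a CHOP assay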
Chain of X-box-binding protein 1 (P17861 whole entry): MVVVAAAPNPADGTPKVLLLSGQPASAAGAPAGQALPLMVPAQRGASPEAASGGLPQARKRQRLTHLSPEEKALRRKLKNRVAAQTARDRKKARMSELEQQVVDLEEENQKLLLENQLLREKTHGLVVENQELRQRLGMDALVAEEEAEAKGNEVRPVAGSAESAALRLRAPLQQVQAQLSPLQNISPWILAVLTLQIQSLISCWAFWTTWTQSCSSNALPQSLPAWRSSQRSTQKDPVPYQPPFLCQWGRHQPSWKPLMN

[16] = system: INS1; assay: INS-1E survival protection against cytokine death – cell-based, luminescence, retest, dose response (AID 449756); assay type: functional; conditions: Rattus norvegicus;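 also: cell death triggered by IL-1 beta plus TNF-alpha plus IFN-gamma mixture; protective hits raise ATP signal compared with cytokine alone wells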
[17] = loss of viability in HepG2 cells – cell-based, CellTiter-Glo, cherry-picked, cytotoxicity control for Shn3 inhibitor project, dose response (AID 624134); assay type: functional
[18] = toxicity toward HepG2 liver cells – cell-based, plate reader, cherry-pick, antagonist series, cytotoxicity control, dose response (AID 743416); assay type: functional
[19] = target: T2, Bcl-2-related protein A1 (Mus musculus, UniProt Q07440); assay type: functional;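 also: confirmatory dose–response counterscreen on Bfl-1, used to check hits from a UBC13 polyubiquitin inhibitor campaign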
T2 sequence (Q07440 whole entry): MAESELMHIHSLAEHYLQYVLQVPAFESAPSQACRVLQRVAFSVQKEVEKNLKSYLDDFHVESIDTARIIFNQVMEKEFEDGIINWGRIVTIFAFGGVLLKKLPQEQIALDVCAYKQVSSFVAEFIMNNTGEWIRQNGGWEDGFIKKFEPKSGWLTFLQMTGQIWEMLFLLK

[20] = target: T1, Ubiquitin-conjugating enzyme E2 N; assay type: functional; remark: listed apart in the source
[21] = target: Sphingosine 1-phosphate receptor 4 (Homo sapiens, UniProt O95977); assay: Late-stage fluorescence dose response cell-based assay to identify agonists of the Sphingosine 1-Phosphate Receptor 4 (S1P4): purchased compounds EC50. [Related pubchem assays (depositor defined):AID1509, AID1523, AID1563, AID1686, AID1701, AID1801]; assay type: functional
Chain of Sphingosine 1-phosphate receptor 4 (O95977 whole entry): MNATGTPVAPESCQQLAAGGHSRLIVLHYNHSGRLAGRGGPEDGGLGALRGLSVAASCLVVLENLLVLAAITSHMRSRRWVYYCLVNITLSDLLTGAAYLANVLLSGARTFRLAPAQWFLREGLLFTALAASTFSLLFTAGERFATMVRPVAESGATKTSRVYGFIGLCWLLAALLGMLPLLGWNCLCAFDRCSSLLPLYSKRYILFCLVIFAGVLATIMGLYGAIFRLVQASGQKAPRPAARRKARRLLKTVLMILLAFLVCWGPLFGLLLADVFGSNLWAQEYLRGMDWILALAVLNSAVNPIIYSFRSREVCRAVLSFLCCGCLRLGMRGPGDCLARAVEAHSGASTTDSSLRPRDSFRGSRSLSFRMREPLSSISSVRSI

[22] = target: Coagulation factor XII (Homo sapiens, UniProt P00748); assay type: functional;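 also: activated factor XIIa alpha cleaving a fluorogenic AMC peptide substrate; inhibitor potency from loss of enzyme activity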
Chain of Coagulation factor XII (P00748 20-372 limits assumed): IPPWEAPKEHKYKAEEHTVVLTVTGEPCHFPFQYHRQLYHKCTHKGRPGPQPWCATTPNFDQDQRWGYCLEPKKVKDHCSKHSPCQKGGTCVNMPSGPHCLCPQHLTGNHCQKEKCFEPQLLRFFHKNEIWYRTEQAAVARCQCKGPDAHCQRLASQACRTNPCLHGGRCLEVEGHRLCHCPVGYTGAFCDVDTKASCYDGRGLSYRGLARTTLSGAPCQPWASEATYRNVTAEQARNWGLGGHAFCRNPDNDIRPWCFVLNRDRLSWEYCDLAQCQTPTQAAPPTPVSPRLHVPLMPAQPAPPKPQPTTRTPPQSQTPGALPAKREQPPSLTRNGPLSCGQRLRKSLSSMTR
Chain of Coagulation factor XII (P00748 373-615 limits assumed): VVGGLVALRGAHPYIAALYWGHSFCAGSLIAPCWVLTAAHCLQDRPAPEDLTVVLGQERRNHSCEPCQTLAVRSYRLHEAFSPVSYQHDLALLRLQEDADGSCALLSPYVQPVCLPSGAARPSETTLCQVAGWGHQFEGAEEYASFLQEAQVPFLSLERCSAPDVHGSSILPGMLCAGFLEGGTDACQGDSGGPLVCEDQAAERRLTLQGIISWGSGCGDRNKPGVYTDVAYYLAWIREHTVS

[23] = target: T3, Dual specificity protein phosphatase 3 (Homo sapiens, UniProt P51452); assay: VHR1 phosphatase inhibitors, primary screen, biochemical, absorbance, uHTS (AID 1654)
T3 sequence (P51452 whole entry): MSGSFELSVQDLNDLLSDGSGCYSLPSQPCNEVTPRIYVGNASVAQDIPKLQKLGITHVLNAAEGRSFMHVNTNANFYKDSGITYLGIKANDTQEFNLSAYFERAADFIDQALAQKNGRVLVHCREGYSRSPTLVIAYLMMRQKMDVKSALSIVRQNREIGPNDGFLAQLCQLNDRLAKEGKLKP

[24] = target: T4, Dual specificity protein phosphatase 6 (Rattus norvegicus, UniProt Q64346); assay: inhibition of rat DUSP6 enzyme activity – biochemical, in vitro, primary screen (AID 425)
T4 sequence (Q64346 whole entry): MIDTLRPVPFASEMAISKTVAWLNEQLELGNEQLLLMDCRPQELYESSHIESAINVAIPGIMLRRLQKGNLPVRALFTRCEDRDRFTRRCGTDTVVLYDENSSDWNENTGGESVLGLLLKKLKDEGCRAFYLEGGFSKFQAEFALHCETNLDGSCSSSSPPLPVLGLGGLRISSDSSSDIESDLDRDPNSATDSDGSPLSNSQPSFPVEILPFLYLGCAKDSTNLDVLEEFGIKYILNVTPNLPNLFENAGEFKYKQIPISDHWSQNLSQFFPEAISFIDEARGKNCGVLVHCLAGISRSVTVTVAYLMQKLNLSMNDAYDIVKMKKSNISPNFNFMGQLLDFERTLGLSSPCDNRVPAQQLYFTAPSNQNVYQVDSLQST

[25] = target: T3, Dual specificity protein phosphatase 3; assay: VHR1 phosphatase inhibitors, biochemical (AID 1878)
[26] = target: T5, Carboxy-terminal domain RNA polymerase II polypeptide A small phosphatase 1 (Homo sapiens, UniProt Q9GZU7); assay: CTDSP1 inhibitors, concentration-response, biochemical, absorbance readout, ultra-high-throughput screen actives (AID 540297); assay type: functional
T5 sequence (Q9GZU7 whole entry): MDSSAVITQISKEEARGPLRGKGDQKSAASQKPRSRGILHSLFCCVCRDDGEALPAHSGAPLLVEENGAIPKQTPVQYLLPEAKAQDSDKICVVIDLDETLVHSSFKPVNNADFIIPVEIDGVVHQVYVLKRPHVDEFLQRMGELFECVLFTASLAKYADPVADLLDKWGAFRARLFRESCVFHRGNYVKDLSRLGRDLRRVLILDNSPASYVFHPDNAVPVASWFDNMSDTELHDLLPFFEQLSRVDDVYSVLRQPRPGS

[27] = target: E3 ubiquitin-protein ligase XIAP (Homo sapiens, UniProt P98170); assay: Counter Screen using XIAP-Bir3 for Chemical Antagonists of Bir1/2 domains of IAP-family anti-apoptotic proteins. [Related pubchem assays (depositor defined):AID1018, AID1449, AID1514, AID1638, AID1749, AID1750, AID488957, AID488963]
Chain of E3 ubiquitin-protein ligase XIAP (P98170 whole entry): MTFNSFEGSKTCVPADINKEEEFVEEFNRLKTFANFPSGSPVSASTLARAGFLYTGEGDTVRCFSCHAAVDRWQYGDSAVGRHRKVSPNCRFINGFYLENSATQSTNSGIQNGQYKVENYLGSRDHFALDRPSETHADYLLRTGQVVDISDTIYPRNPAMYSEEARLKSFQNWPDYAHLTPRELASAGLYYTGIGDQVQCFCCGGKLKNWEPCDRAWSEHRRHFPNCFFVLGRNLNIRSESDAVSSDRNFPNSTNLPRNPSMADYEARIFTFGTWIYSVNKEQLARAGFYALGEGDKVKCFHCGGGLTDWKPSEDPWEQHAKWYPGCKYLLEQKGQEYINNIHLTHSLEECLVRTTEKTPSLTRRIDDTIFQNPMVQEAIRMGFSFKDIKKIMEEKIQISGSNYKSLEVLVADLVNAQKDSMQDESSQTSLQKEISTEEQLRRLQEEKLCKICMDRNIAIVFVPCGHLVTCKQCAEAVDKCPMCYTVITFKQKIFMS

[28] = Vero E6 cell cytotoxicity, dose response, cytotoxicity control for non-replicating M. tuberculosis project, secondary assay (AID 492998); assay type: functional, VeroE6; conditions: Vero C1008
[29] = target: T6, Tyrosine-protein phosphatase non-receptor type 22 (Homo sapiens, UniProt Q9Y2R2); assay: SAR LYP1 Fluorescent Assay using pCAP substrate for In Vitro dose response studies - Set 2. [Related pubchem assays (depositor defined):AID1779, AID1784, AID2135, AID449727]; assay type: functional
T6 sequence (Q9Y2R2 whole entry): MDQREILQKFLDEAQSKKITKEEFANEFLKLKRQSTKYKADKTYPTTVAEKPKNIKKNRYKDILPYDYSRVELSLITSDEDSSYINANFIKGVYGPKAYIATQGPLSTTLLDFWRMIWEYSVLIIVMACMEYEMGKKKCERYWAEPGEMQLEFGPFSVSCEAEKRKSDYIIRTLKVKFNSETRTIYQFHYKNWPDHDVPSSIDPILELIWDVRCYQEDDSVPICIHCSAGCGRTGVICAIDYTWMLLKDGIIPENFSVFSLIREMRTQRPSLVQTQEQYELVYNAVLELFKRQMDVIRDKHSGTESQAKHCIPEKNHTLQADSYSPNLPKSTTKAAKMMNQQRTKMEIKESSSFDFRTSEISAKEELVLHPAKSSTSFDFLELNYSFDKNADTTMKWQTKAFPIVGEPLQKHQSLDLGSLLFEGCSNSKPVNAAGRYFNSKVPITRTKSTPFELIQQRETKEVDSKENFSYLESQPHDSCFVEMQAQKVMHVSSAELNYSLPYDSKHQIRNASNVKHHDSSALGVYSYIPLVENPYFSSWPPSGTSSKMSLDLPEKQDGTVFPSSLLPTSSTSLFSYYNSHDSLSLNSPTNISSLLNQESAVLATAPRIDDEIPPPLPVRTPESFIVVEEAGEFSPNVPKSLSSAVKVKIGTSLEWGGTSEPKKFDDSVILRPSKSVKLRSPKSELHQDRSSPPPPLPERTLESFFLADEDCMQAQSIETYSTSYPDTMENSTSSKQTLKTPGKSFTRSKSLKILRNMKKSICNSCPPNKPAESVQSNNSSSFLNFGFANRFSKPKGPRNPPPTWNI

[30] = target: Tyrosine-protein phosphatase non-receptor type 12 (Homo sapiens, UniProt Q05209); assay: SAR Selectivity Analysis of small molecule inhibitors of PEST using pCAP in a fluorescence assay. [Related pubchem assays (depositor defined):AID1779, AID1784, AID2135]; assay type: functional
Chain of Tyrosine-protein phosphatase non-receptor type 12 (Q05209 whole entry): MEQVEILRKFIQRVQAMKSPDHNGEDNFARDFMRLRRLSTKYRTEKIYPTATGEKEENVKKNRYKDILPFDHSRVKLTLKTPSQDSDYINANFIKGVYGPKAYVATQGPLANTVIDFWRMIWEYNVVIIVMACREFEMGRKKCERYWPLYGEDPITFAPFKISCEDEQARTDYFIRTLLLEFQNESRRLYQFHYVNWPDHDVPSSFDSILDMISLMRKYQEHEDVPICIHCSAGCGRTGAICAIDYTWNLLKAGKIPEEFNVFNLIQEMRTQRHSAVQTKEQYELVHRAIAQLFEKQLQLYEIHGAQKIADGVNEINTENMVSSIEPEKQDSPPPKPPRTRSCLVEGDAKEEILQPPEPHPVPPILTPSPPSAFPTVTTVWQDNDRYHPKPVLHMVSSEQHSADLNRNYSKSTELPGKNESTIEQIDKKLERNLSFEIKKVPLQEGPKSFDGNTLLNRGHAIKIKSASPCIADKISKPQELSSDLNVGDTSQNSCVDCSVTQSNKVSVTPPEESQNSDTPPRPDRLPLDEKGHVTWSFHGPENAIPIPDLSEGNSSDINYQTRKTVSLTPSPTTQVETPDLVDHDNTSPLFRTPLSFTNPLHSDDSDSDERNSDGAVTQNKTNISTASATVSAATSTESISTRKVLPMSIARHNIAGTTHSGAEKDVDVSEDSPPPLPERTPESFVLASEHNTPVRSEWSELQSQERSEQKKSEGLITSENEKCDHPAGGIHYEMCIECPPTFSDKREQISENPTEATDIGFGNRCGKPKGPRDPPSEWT

[31] = target: T7, Tyrosine-protein phosphatase non-receptor type 7 (Homo sapiens, UniProt P35236); assay: inhibition of hematopoietic tyrosine phosphatase HePTP – biochemical, set 2, SAR follow-up (AID 449736); assay type: functional
T7 sequence (P35236 whole entry): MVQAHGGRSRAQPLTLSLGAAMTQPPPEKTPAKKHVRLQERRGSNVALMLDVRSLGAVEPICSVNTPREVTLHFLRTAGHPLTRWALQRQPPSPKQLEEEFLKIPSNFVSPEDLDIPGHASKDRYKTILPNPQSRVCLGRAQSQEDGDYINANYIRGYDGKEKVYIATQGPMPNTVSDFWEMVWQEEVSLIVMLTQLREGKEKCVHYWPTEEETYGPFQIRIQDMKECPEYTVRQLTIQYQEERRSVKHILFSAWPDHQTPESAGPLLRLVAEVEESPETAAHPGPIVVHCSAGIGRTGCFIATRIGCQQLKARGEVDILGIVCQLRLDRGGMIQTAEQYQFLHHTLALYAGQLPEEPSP

[32] = target: T6, Tyrosine-protein phosphatase non-receptor type 22; assay: SAR LYP1 Fluorescent Assay using OMFP substrate for In Vitro dose response studies - Set 2. [Related pubchem assays (depositor defined):AID1779, AID1784, AID2140, AID449726, AID488869]; assay type: functional
[33] = target: T6, Tyrosine-protein phosphatase non-receptor type 22; assay: SAR LYP1 Fluorescent Assay using OMFP substrate for In Vitro dose response studies - Set 3. [Related pubchem assays (depositor defined):AID1779, AID1784, AID2140, AID2686]; assay type: functional
[34] = target: T6, Tyrosine-protein phosphatase non-receptor type 22; assay: inhibition of lymphoid tyrosine phosphatase LYP – biochemical, pCAP fluorogenic substrate, fluorescence, set 3, SAR follow-up (AID 449727); assay type: functional

Cc1ccc(Nc2nc(NCc3ccco3)c3ccccc3n2)cc1.Cl
AC50 [1]: 3.31 µM (active)
EC50 [2]: > 160 µM (inconclusive)
EC50 [3]: 0.094 µM (active)
EC50 [4]: < 0.1 µM (active)
AC50 [5]: 9.84 µM (active)
Absolute IC50 (CHOP) [6]: 10 µM
AC50 [7]: 9.43 µM (active)
IC50 [8]: > 20 µM (inactive)
AC50 [9]: 10.9 µM (active)
EC50 [10]: 3.24 µM (active)
IC50 [11]: 5.21 µM (active)
AC50 [12]: 16.1 µM (active)
EC50 [13]: > 30 µM (not active)
AC50 [14]: 12.3 µM (active)
Absolute IC50 (XBP1) [15]: 10 µM
AC50 [16]: 3.65 µM (active)
AC50 [17]: 12.6 µM (active)
AC50 [18]: 7.35 µM (active)

CCCCn1c(=O)[nH]c(=O)c2c1nc(-c1ccc(C#N)cc1)n2C1CCCC1
IC50 [19]: > 20 µM (inactive)
IC50 [20]: 1.99 µM (active)
IC50 [8]: 18.7 µM (active)

Cc1ccc(OCc2cc3ccc(C)c(C)c3nc2Cl)c([N+](=O)[O-])n1
EC50 [21]: > 50 µM (inactive)

CCCCOC(=O)c1ccc(NC(=O)C(=O)NCc2ccco2)cc1
IC50 [22]: > 50 µM (inactive)

Cc1snc2sc(C(=O)c3ccc(F)cc3)c(N)c12
IC50 [23]: < 1.23 µM (inactive)
IC50 [24]: > 158 µM (not active)
IC50 [25]: 2.03 µM (active)

Cc1coc2c(C)c3oc(=O)c(CCC(=O)N[C@@H](C)C(=O)N[C@@H](Cc4ccccc4)C(=O)O)c(C)c3cc12
IC50 [26]: 3.6 µM (active)
IC50 [27]: > 20 µM (inactive)

N=C(NOC(=O)c1cccc2ccccc12)c1cccnc1
CC50 [28]: 15 µM (active)

N#C/C(=C\c1ccc(OCc2ccc(F)cc2)cc1)C(=O)Nc1cccc(C(=O)O)c1
IC50 [29]: 5.52 µM (active)
IC50 [30]: 0.916 µM (active)
IC50 [31]: 2.03 µM (active)
IC50 [26]: 4.13 µM (active)
IC50 [32]: 5.27 µM (active)
IC50 [33]: 0.967 µM (active)
IC50 [34]: 6.93 µM (active)
